Measured values reported in patent publication US8492420B2, “Use of purine derivatives for the production of medicaments for the treatment of mucoviscidosis and diseases related to protein addressing errors in cells” (Centre National de la Recherche Scientifique-CNRS, priority 2004, dated 2013).
“Also recorded” adds a separate entry of the source. Where two headings read alike, the source gives them in different places.

Columns and labels:
[1] = biological target: T1, delF508-CFTR (Homo sapiens, UniProt P13569, DEL508-508); assay: Iodide efflux test of delF508 addressing in CF15 cells
Protocol: These cells will therefore overexpress the CFTR protein. • Culture medium: MEM alpha medium (GIBCO)+7% foetal calf serum+0.5% penicilline/streptomycin+100 μM methotrexate (amethopterine, Sigma). • CF15 cells: CF15 cells are human nasal epithelial cells expressing the ΔF508-CFTR gene. • Culture medium: DMEM+HAM F12 medium+10% FCS+0.6% penicilline/streptomycin+growth factors (5 μg/ml insulin, 5 μg/ml transferrin, 5.5 μM epinephrin, 0.18 mM adenine, 10 ng/ml EGF, 2 nM T3, 1.1 μM hydrocortisone). • Calu-3 cells: Calu-3 cells are human lung epithelial cells expressing the wild-type CFTR gene. • Culture medium: DMEM/F12 medium with glutamax+7% foetal calf serum+1% penicillin/streptomycin.
Measurements of chloride ion transport in the cells were performed using the radioactive iodide efflux technique (Becq and al., 1999; Dormer and al., 2001). The ^125I tracer is incorporated into the intracellular milieu. The quantity of radiotracer coming out of the cell is then measured after adding various pharmacological agents. Iodide is used as a tracer of chloride ion transport. ^125I has the advantage of being short-lived compared to other markers such as ^35CI (respective half-lives: 30 days and 300,000 years).
The cells are incubated in an appropriate medium in 24-well plates. The cells are rinsed twice with efflux medium (136.6 mM NaCl, 5.4 mM KCl, 0.3 mM KH2PO4, 0.3 mM NaH2PO4, 4.2 mM NaHCO3, 1.3 mM CaCl2, 0.5 mM MgCl2, 0.4 mM MgSO4, 10 mM HEPES, 5.6 mM D-glucose) in order to eliminate dead cells, which release radioactivity in an anarchic fashion. The cells are then incubated with a 500-μl load (1 μCi/ml ^125INa) for 30 min for CHO-WT or 1 hr for CF15 and Calu-3 cells. The iodide equilibrates on either side of the cell membrane. The following steps are performed using a MultiPROBE probe (Packard): the loading medium is rinsed with efflux medium in order to eliminate extracellular radioactivity. The supernatant is collected every minute into haemolysis tubes and the medium is replaced by an equivalent volume of medium (500 μl). No drug is added to the samples taken in the first three minutes in order to obtain a stable baseline characterising the passive exit of I ions. The 7 samples that follow are obtained in the presence of the molecule to be tested. At the end of the experiment, the cells are lysed by adding 500 μl of 0.1 N NaOH/0.1% SDS (30 min), which allows determining the level of radioactivity remaining inside the cell. The radioactivity present in the haemolysis tubes is measured as counts per minute (cpm) using a Cobra II gamma counter (Packard). The results (cpm) are expressed as velocity of radioactive iodide efflux (R) according to the formula: R (min^−1)=[In(^125I t1)−In(^125I t2)]/(t1−t2) where ^125I t1=at time t1 and ^125I t2=at time t2. This iodide flux is represented by a graph. In order to quantify the iodide efflux due to administration of the tested molecule, the relative flux is calculated as follows in order to ignore the basal flux: Relative velocity (min^−1)=Rpeak−Rbasal. […] The results are presented in the form of a mean +/−SEM. Student's statistical test is used to compare the effect of the various drugs with the controls (the corresponding P<0.01 values are considered to be statistically significant).
For each experiment, the addition of a cocktail (10 μM Forskoline+30 μM Genisteine) allows activation of the CFTR when the latter is localised in the membrane. This allows an iodide efflux to be observed if delF508 addressing has been restored.

[2] = biological target: T1, delF508-CFTR; assay: Immunolocalisation of delF508-CFTR in CF15 cells (confocal); format: cell-based; set-up: CF15 human lung epithelial cells homozygous for the delF508 deletion; endogenous in cells; host or cells: CF15 human epithelial cells, homozygous delF508; settings: 2 hrs treatment, 100 μM
Protocol: Immunolabelling allows visualising the cellular localisation of the CFTR protein by means of an anti-CFTR primary antibody (Ab), and a secondary Cy3-labelled fluorescent antibody directed against the primary antibody. The cells are first seeded on cover slips in an appropriate culture medium. The cells are then washed 3 times with TBS (157 mM NaCl, […] Tris base, pH 7.4) for 5 min. each time and then fixed by adding 3% TBS-paraformaldehyde for 20 min. After 3 washes with TBS (5 min. each), the cells are incubated with 0.1% TBS-triton (10 min) to make holes in the cell membrane, and then washed 3 times with TBS before being exposed to 0.5% TBS-BSA-0.05% saponin for 1 hr. The cells are then incubated with the primary anti-CFTR C terminal antibody (2 μg/ml) for 1 hr. The cells are washed 3 times (5 min. each) with TBS-BSA-saponin before incubating with the GAM-cy3 secondary antibody (1/400) for 1 hr. After 2 TBS washes (5 min. each), the nuclei are labelled by incubating with Topro3 (1/1,000) for 5 min. Finally, the cover slips can be mounted on a glass slide after 3 final TBS washes (5 min. each). The slides are analysed with a confocal microscope (Bio-Rad) using laser excitation at appropriate wave-lengths. In order to differentiate Cy3 from Topro3 labelling, the colour of the Topor3 fluorescence has been changed to blue (colour of the nuclei). […]

[3] = biological target: T2, wild-type CFTR (Homo sapiens, UniProt P13569); assay: Iodide efflux test of CFTR activation in Calu-3 cells; format: cell-based; settings: n=8, controls forskoline 5 μM and MPB-91 250 μM
Protocol: The controls used were forskoline (5 μM, n=8) and MPB-91 (250 μM, n=8).

[4] = biological target: T1, delF508-CFTR; assay: Competition between roscovitine and ER chaperone machinery (iodide efflux); format: cell-based; set-up: CF15 human lung epithelial cells homozygous for the delF508 deletion; endogenous in cells; host or cells: CF15 human epithelial cells, homozygous delF508
Source text: The competition between CFTR-T1 and the ER chaperone machinery is illustrated by FIGS. 6A and 6B.
The table below summarises the roscovitine and ER chaperone machinery competition experiments performed by the iodide efflux technique. • inhibition, ** P<0.01, * P<0.1, ns P>0.1 (Student's t-test)

[5] = biological target: T1, delF508-CFTR; assay: Immunoprecipitation and Western-Blot of delF508-CFTR in CF15 cells; format: cell-based; set-up: CF15 human lung epithelial cells homozygous for the delF508 deletion; endogenous in cells; host or cells: CF15 human epithelial cells, homozygous delF508; settings: 2 hrs, 100 μM
Protocol: The study of delF508-CFTR protein addressing is performed in the laboratory by using a combination of pharmacological, cellular imagery, biochemical and electrophysiological tests on CF15 human lung epithelial cells homozygous for the delF508 deletion. Results of immunoprecipitation and Western-Blot analyses of non mutated CFTR from wild-type CHO cells and delF508 cells treated for 2 hrs with 100 μM of the tested compound (FIG. 3C) or untreated cells (control). CF15 cells treated for 24 hrs at 27° C. (FIG. 3B) or for 2 hrs with 10 μM thapsigargin (TG) were used as a positive control.

[6] = biological target: T2, wild-type CFTR; assay: Iodide efflux test of CFTR addressing in Calu-3 cells; format: cell-based; settings: Calu-3 cells treated 2 hrs, 100 μM
[7] = test system: CHO-WT cells; assay: MTT cytotoxicity test; format: cell-based, Chinese Hamster; settings: 2 hrs incubation, different concentrations
Protocol: The MTT cytotoxicity test is a […] test based on the capacity of mitochondrial dehydrogenases to metabolise MTT (a yellow tetrazolium salt) into formazan (purple). The absorbance is proportional to the concentration of converted dye and can then be measured by spectrophotometry. The cells are incubated in 96-well microplates in the presence of the agent to be tested for 2 hours. Three controls are performed: 100% live cells (cells without any agent); 0% live cells (cells left under normal atmosphere); blank (medium without cells). The cells are rinsed with RPMI medium without phenol red in order for the colour of the medium not to interfere with absorbance measurements. The cells are then incubated for 4 hours with 100 μl RPMI solution supplemented with MTT (0.5 mg/ml). The medium is eliminated and 100 μl DMSO is added to dissolve the converted dye (formazan). The absorbance is measured by spectrophotometry at 570 nm (purple); 630 nm (background noise). In order to ignore the background noise, the following calculation is performed: DOreelle=DO570nm−DO630nm.
In order to test the cytotoxicity of roscovitine, CHO-WT cells were incubated for 2 hrs with different concentrations of inhibitors before being tested for viability with MTT.

[8] = read-out: Ec50 (concentration giving 50% of maximal efficiency) for delF508 addressing, CF15 cells, 2 hrs at 37° C., stimulation with 10 μM Forskoline+30 μM Genisteine, n=4

T1 sequence (P13569 with tags, fused parts or gaps DEL508-508): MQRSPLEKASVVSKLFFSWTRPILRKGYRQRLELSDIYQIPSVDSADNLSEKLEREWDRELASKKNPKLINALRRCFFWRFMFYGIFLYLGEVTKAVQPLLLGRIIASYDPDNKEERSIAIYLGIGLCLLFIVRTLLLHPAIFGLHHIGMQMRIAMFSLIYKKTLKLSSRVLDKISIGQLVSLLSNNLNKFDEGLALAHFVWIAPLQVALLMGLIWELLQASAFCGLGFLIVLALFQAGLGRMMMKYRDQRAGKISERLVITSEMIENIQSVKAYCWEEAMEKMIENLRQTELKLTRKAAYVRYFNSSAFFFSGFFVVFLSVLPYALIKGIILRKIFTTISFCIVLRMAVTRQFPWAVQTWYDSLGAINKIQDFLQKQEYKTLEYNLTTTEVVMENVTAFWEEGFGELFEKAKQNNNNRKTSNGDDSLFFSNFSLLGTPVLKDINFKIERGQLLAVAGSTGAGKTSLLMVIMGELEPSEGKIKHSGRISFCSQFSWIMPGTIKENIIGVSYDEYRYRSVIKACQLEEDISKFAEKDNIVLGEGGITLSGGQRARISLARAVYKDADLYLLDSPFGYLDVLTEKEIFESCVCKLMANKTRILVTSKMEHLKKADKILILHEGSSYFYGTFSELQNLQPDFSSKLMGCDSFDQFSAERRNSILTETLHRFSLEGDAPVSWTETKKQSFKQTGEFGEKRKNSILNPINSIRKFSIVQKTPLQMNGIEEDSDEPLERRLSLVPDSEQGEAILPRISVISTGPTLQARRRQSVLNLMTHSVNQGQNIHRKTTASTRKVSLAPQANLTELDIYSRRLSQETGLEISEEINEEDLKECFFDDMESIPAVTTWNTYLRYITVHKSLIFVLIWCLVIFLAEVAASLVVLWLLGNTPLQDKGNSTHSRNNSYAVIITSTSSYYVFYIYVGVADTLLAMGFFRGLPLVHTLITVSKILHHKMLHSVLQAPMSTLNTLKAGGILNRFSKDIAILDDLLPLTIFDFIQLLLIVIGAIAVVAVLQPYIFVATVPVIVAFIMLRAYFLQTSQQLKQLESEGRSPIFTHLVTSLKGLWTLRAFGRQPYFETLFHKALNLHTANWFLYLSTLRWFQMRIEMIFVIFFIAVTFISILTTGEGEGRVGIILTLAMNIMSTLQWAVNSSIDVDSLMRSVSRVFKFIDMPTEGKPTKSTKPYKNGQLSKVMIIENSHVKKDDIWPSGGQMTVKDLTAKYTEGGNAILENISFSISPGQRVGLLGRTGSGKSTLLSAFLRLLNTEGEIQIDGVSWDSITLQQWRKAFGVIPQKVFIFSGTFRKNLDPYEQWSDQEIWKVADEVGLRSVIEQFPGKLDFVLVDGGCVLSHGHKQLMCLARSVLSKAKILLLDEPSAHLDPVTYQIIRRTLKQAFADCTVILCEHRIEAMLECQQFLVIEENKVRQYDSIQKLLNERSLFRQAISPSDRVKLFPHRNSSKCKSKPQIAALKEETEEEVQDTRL
T2 sequence (P13569 whole entry): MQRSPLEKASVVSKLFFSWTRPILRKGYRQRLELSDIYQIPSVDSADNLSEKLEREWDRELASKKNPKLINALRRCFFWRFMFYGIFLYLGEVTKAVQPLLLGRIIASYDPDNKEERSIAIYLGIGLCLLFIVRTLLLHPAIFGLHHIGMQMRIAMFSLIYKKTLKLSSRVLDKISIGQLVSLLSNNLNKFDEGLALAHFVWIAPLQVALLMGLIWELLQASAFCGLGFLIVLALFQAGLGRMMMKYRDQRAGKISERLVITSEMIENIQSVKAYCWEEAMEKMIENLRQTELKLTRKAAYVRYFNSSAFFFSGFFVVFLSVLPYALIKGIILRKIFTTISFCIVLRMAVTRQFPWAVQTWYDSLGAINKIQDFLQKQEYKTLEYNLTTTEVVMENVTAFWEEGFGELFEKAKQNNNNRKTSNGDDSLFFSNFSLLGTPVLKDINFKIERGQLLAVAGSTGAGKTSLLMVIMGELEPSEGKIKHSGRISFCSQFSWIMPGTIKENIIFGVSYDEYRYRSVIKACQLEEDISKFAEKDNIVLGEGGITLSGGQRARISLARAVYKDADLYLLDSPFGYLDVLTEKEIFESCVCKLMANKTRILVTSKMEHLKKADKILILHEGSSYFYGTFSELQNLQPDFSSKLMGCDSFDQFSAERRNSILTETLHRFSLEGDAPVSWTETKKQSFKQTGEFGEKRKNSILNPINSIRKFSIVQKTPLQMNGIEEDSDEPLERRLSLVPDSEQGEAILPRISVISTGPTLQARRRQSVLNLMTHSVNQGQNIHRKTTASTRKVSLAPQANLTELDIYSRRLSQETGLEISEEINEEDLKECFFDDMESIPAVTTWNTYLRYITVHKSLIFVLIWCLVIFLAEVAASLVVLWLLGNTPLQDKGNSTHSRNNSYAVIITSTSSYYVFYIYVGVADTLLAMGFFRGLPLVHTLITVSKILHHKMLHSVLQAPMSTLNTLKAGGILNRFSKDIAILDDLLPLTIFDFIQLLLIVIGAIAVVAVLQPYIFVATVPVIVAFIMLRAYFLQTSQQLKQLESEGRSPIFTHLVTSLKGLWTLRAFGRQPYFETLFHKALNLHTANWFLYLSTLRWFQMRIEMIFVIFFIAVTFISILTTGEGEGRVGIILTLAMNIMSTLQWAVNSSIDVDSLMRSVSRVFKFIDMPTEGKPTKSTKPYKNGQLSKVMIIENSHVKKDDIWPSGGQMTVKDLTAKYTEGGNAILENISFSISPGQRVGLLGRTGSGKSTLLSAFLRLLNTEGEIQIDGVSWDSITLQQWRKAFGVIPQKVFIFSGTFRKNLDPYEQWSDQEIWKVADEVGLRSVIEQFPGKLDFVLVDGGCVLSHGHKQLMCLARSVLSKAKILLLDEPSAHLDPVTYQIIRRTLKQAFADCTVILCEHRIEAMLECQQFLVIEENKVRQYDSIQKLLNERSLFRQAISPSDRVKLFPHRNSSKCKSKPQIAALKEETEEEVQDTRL

CC[C@H](CO)Nc1nc(NCc2ccccc2)c2ncn(C(C)C)c2n1 [R-Roscovitine, 2-(R)-(1-ethyl-2-hydroxyethylamino)-6-benzylamino-9-isopropylpurine]
EC50 [1, 8]: 34 ± 1.9 µM

CC[C@H](CO)Nc1nc(NCc2ccccc2)c2ncn(C(C)C)c2n1 [roscovitine]
EC50 [1]: 56 µM | Function of readdressed delF508-CFTR (iodide efflux and patch-clamp on whole cells) [1]: functional | Treatment time for maximal correction of delF508-CFTR chloride ion channel function ([1]; CF15 cells, 100 μM): 2 h | Restoration of delF508 addressing and ion transport function ([1]; CF15 cells, 2 hrs at 37° C., two forms (R and S)): restores addressing of the delF508 protein | Localisation of delF508-CFTR protein [2]: localised in the plasma membrane compartment; also recorded: correct delF508-CFTR relocation to the plasma membrane; also recorded: allowed relocation of the delF508-CFTR protein to the membrane | Activation of wild-type CFTR or other anionic transporter [3]: not found to be an activator | Competition with inhibitors of the chaperone and degradation machinery [4]: competed with inhibitors of calnexin/delF508-CFTR binding as well as inhibitors of the degradation pathway | Effect of Brefeldine A (BFA) on the compound's action ([4]; BFA, inhibitor of ERGIC vesicular traffic): inhibition | Effect of MG132 on the compound's action ([4]; MG132, proteasome inhibitor): no modulation is observed | Maturation of delF508-CFTR (band C in Western-Blot) [5]: appearance of the mature CFTR band | Maturation of delF508-CFTR (band C in Western-Blot) ([5]; listed as CFTR-T1): maturation of delF508-CFTR (band C appears in the Western-Blot) | CFTR activity after treatment (wild-type CFTR addressing) [6]: not significantly different from the controls | Cell viability (MTT) [7]: viable at all concentrations

CC[C@@H](CO)Nc1nc(NCc2ccccc2)c2ncn(C(C)C)c2n1 [S-Roscovitine, 2-(S)(1-ethyl-2-hydroxyethylamino)-6-benzylamino-9-isopropylpurine]
EC50 [1, 8]: 32 ± 1.4 µM
